# Experimental data: US20210121486A1, “ANIMAL THERAPEUTIC AND FEED COMPOSITIONS AND METHODS OF USE” (Cadena Bio, Inc., priority 2015, published 2021)
# Tested on: common gut microbes
# Assay: Gut microbe growth on carbohydrate food sources (96-well carbohydrate array, A600 growth curves), whole panel
# Format: cell-based
# Settings: all of the gut microflora cultures, sole carbohydrate source, anaerobic, 37° C.
# Procedure: The ability of common gut microbes to grow on carbohydrate food sources was measured using a custom carbohydrate array constructed in a 96-well format. See for example, Martens E C, et al, “Recognition and Degradation of Plant Cell Wall Polysaccharides by Two Human Gut Symbionts,” PLOS Biology, volume 9, issue 12, page e1001221 (2011) and Martens E C, Chiang H C, Gordon J I, “Mucosal glycan foraging enhances fitness and transmission of a saccharolytic human gut bacterial symbiont.” Cell Host Microbe 4: 447-457 (2008). Each well of a flat bottom 96-well plate was loaded with 100 µL of each sterilized carbohydrate stock at 2× concentration.
# Each substrate was represented in […] on each assay plate in two non-adjacent wells. Two carbohydrate-free water wells were included as negative controls. […] Plates were then loaded into an automated plate handling device coupled to an absorbance reader. Absorbance at 600 nm (A600) was measured for each well at 10-15 min intervals. […]
smiles,measurement,value
CC(=O)N[C@H]1C(O)O[C@H](CO)[C@@H](O)[C@@H]1O (stereo partly shown) [N-acetylglucosamine],growth of the gut microflora cultures on the carbohydrate,grew well
